Our source for the inhibition and IC50 values is ChEMBL document CHEMBL4406802, “Human disorders associated with inflammation and the evolving role of natural products to overcome” (Eur J Med Chem, 2019).

A word on the inhibition: it is the relative decrease from the control value, in per cent. In general, IC50 refers to the point on the concentration scale where inhibition reaches its midpoint.

Experiment [1] concerns RAW264.7. Kind of experiment: Antiinflammatory activity in mouse RAW264.7 cells assessed as inhibition of LPS-induced nitric oxide production at […] after 24 hrs by Griess reagent based assay relative to control. It is filed as functional. Also on record: dose or concentration left out as unconfirmed. Particulars: RAW264.7, 24 h.
A short description of experiment [2]: Inhibition of TNFalpha-induced NFkappaB (unknown origin) activation expressed in mouse NIH-3T3 cells […] followed by TNFalpha addition measured after 6 hrs by luciferase reporter gene assay. It is filed as cell-based. Particulars: NIH3T3. For orientation: Reporter assays use an easily measured gene product as a stand-in for the process of interest.

In experiment [3] the test system is RAW264.7. Kind of experiment: Antiinflammatory activity against mouse RAW264.7 cells assessed as inhibition of LPS induced iNOS at 30 uM preincubated for 1 hr followed by LPS stimulation measured after 18 hrs relative to control. It is filed as functional.
Experiment [4] addresses T1, Prostaglandin G/H synthase 2 (Homo sapiens, UniProt P35354).
T1 sequence (P35354 whole entry): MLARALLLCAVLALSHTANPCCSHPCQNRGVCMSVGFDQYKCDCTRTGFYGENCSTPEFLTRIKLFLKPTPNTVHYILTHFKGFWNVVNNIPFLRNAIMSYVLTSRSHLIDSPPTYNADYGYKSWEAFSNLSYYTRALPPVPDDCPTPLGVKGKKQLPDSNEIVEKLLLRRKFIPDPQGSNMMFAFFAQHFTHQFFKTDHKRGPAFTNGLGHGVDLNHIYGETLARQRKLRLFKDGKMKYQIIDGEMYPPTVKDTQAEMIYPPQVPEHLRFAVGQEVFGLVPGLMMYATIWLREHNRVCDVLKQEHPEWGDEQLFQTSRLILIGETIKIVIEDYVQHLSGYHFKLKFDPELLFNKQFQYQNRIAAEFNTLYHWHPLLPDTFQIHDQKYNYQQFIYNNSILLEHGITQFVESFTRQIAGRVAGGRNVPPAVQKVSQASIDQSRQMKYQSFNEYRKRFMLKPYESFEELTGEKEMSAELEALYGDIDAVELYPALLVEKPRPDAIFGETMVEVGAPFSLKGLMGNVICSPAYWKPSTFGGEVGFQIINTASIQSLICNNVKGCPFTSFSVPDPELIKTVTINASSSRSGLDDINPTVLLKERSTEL
Kind of experiment: Inhibition of COX2 (unknown origin).

With `O=c1c2ccc(O)c(O)c2oc2cc(O)cc(O)c12`, the inhibition in experiment [1] is 78.9%.
`C=C(CO)C(=O)O[C@H]1C/C(C)=C/CC/C(CO)=C/[C@H]2OC(=O)C(=C)[C@H]12`: inhibition in experiment [2] was half-maximal at 8.6 µM (IC50).
Turning to `CC1(C)CC[C@]2(C(=O)O[C@@H]3O[C@H](CO)[C@@H](O)[C@H](O)[C@H]3O)CC[C@]3(C)C(=CC[C@@H]4[C@@]5(C)CC[C@H](O[C@@H]6O[C@H](C(=O)O)[C@@H](O)[C@H](O)[C@H]6O)C(C)(C)[C@@H]5CC[C@]43C)[C@@H]2C1` [CHIKUSETSUSAPONIN IVA], the inhibition at 30 µM in experiment [3] turned out to be 92.8%.
On to `CC(C)=CC[C@@H]1C[C@]23C[C@@H](CC=C(C)C)C(C)(C)[C@](CC=C(C)C)(C(=O)C(C(=O)c4ccc(O)c(O)c4)=C2OC1(C)C)C3=O`, for which the inhibition in experiment [1] turned out to be 92.9%.
Consider `COc1cc(C)c2c(=O)c3c(O)cc(OC)cc3oc2c1` [LICHEXANTHONE], for which the inhibition in experiment [1] was found to be 32%.
Turning to `C=C1C(=O)O[C@@H]2/C=C(\CO)CC/C=C(\C)C[C@H](OC(=O)/C(=C/C)CO)[C@@H]12`, the IC50 in experiment [2] is 42.1 µM.
As to `CC1=C(C)[C@H]2C3=CC[C@@H]4[C@@]5(C)CC[C@H](O[C@@H]6OC[C@@H](O)[C@H](O)[C@H]6O[C@@H]6O[C@H](CO)[C@@H](O)[C@H](O)[C@H]6O)C(C)(C)[C@@H]5CC[C@@]4(C)[C@]3(C)CC[C@@]2(C(=O)O[C@@H]2O[C@H](CO)[C@@H](O)[C@H](O)[C@H]2O)CC1`, the inhibition at 30 µM in experiment [3] turned out to be 72%.
`C=C[C@]1(C)C[C@H](OC(=O)C(=C)CO)[C@@H](C(=C)C(=O)OC)[C@H](O)[C@H]1C(=C)CO` showed a half-inhibitory concentration (IC50) in experiment [2] of 45 µM.
Take `CC1=C2C3=CC[C@@H]4[C@@]5(C)CC[C@H](O[C@@H]6OC[C@@H](O)[C@H](O)[C@H]6O)C(C)(C)[C@@H]5CC[C@@]4(C)[C@]3(C)CC[C@@]2(C(=O)O[C@@H]2O[C@H](CO)[C@@H](O)[C@H](O)[C@H]2O)CC[C@H]1C`: the inhibition at 30 µM in experiment [3] is 64.9%.
`C=C(C)[C@@H]1CC[C@]2(C)CC[C@]3(C)[C@H](CCC4[C@@]5(C)[C@H](O)C[C@H](O)C(C)(C)[C@@H]5CC[C@]43C)[C@@H]12` (some centres undefined): the IC50 in experiment [4] came out at 450 µM.
The same measure, in the same setting: the result for `CC(C)[C@@H]1CC[C@]2(C)[C@@H]3C(C=C4[C@@H]5CC(C)(C)C(=O)C[C@]5(C)CC[C@]42C)OC(=O)CC(O)[C@]31C` (some centres undefined) reads 460 µM.
Turning to `CC1=C2C3=CC[C@@H]4[C@@]5(C)CC[C@H](O[C@@H]6OC[C@@H](O)[C@H](O)[C@H]6O[C@@H]6O[C@H](CO)[C@@H](O)[C@H](O)[C@H]6O)C(C)(C)[C@@H]5CC[C@@]4(C)[C@]3(C)CC[C@@]2(C(=O)O[C@@H]2O[C@H](CO)[C@@H](O)[C@H](O)[C@H]2O)CC[C@H]1C`, the inhibition at 30 µM in experiment [3] was determined as 75%.
In the case of `COOC[C@@]1(C)CC[C@]2(C)CC[C@]3(C)[C@@H]4CC(=O)c5cc(OC)c(O)cc5[C@]4(C)CC[C@@]3(C)C2C1` (some centres undefined), in experiment [4], the IC50 was determined as 660 µM.
Still for that read-out and setting: the result for `O=C(O[C@@H]1[C@@H](c2c(O)cc(O)c3c2O[C@H](c2cc(O)c(O)c(O)c2)[C@H](OC(=O)c2cc(O)c(O)c(O)c2)C3)c2c(O)cc(O)c([C@H]3c4c(O)cc(O)cc4O[C@H](c4cc(O)c(O)c(O)c4)[C@@H]3OC(=O)c3cc(O)c(O)c(O)c3)c2O[C@@H]1c1cc(O)c(O)c(O)c1)c1cc(O)c(O)c(O)c1` reads 4.5 µM.
For the compound `C=C[C@]1(C)C[C@H](OC(=O)C(=C)CO)[C@H]2C(=C)C(=O)O[C@@H]2[C@H]1C(=C)CO`, the IC50 in experiment [2] came to 22.5 µM.
For the compound `C=C(CO)C(=O)O[C@H]1C[C@@H]2[C@@H]([C@@H](O)[C@@H]1C(=C)C(=O)OC)[C@H](C=O)CC[C@H]2O`, the IC50 in experiment [2] was greater than 50 µM.
For the compound `C=C(C)[C@@H]1CC[C@]2(C)CC[C@]3(C)[C@H](CCC4[C@@]5(C)[C@H](O)C[C@H](OC(C)=O)C(C)(C)[C@@H]5CC[C@]43C)[C@@H]12` (some centres undefined), in experiment [4], the midpoint of inhibition, the IC50, lay at 540 µM.
The same measure, in the same setting: the result for `CC(C)[C@@H]1CC[C@]2(C)[C@@H]3C(C=C4[C@@H]5CC(C)(C)CC[C@]5(C)CC[C@]42C)OC(=O)CC[C@]31C` (some centres undefined) reads 650 µM.
As for `C=C[C@]1(C)C[C@H](OC(=O)C(=C)CO)[C@H]2C(=C)C(=O)O[C@@H]2[C@H]1C(=C)C=O`, in experiment [2], the IC50 is 3.6 µM.
